Measured values as given in ChEMBL document CHEMBL1123274, “Azasteroids: structure-activity relationships for inhibition of 5 alpha-reductase and of androgen receptor binding” (J Med Chem, 1986).
pIC50: −log10 of the molar value.

Experiments:
[1] = target: T1, Steroid 5-alpha-reductase (Rattus norvegicus, UniProt P24008+P31214); experiment: Inhibition of Steroid 5-alpha-reductase from rat prostate; type: tissue-based, Prostate gland
T1 sequence (P24008 whole entry): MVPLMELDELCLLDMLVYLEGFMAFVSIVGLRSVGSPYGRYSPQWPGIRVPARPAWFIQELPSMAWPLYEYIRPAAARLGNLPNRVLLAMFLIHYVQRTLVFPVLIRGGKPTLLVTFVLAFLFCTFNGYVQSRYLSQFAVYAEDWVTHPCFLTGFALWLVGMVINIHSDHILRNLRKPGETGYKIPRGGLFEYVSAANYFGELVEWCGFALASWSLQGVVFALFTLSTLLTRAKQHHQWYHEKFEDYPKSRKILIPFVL
T1 sequence (P31214 whole entry): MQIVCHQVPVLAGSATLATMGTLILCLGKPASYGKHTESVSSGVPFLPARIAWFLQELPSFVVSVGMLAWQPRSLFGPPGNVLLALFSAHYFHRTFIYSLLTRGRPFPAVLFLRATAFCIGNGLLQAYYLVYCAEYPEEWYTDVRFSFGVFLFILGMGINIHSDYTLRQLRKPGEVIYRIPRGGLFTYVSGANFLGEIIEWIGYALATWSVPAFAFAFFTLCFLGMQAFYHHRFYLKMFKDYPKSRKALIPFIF

Androgen receptor = target: T2, Androgen receptor (Rattus norvegicus, UniProt P15207); experiment: In vitro antagonist activity against rat prostatic androgen receptor (AR)
T2 sequence (P15207 whole entry): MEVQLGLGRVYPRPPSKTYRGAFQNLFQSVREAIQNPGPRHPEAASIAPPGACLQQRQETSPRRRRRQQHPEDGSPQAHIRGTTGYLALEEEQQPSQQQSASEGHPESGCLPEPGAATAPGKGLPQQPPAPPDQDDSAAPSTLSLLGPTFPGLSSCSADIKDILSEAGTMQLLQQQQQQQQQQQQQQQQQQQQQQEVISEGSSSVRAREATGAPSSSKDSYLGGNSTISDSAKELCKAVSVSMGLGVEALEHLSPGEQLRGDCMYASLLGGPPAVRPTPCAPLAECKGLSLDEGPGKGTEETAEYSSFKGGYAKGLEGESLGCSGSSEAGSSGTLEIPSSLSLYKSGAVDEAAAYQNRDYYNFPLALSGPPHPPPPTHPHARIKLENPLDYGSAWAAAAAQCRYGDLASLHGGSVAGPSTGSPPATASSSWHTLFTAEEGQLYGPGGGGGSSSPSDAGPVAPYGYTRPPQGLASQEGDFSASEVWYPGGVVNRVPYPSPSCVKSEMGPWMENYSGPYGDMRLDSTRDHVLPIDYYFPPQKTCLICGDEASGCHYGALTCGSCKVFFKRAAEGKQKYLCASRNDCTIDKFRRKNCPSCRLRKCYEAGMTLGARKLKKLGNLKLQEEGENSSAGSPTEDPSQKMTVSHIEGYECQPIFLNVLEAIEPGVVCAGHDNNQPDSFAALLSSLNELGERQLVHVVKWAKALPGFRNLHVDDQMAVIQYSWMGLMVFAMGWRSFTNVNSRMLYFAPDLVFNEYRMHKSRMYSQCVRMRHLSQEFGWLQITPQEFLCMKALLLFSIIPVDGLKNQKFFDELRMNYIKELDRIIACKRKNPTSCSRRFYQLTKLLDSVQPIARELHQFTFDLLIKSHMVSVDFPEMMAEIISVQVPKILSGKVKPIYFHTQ

[2] = target: T1, Steroid 5-alpha-reductase; experiment: In vitro inhibitory activity against rat prostatic steroid 5-alpha-reductase; type: protein assay
[3] = target: T1, Steroid 5-alpha-reductase; experiment: Apparent inhibitory constant value for rat prostatic 5-alpha reductase was determined; type: protein assay
[4] = target: T1, Steroid 5-alpha-reductase; experiment: Apparent inhibitory constant value for rat prostatic steroid 5-alpha reductase was determined; type: protein assay
[5] = target: T1, Steroid 5-alpha-reductase; experiment: Apparent inhibitory constant value for rat prostatic steroid 5alpha reductase was determined; type: protein assay

SMILES	IC50 [1]	pIC50 (Androgen receptor)	IC50 [2] [nM]	Ki app [3] [nM]	Ki app [4] [nM]	Ki app [5] [nM]
CCN(CC)C(=O)[C@H]1CC[C@H]2[C@@H]3CCC4=C(C#N)C(=O)CC[C@]4(C)[C@H]3CC[C@]12C	2.9e-08 M	5.89	–	–	–	–
COC(=O)[C@H]1CC[C@H]2[C@@H]3CCC4N(C)C(=O)CC[C@]4(C)[C@H]3CC[C@]12C (stereo partly drawn)	–	6.92	7.6	165	–	–
C[C@]12CCC(=O)C=C1CC[C@@H]1[C@@H]2CC[C@@]2(C)[C@H]1CC[C@@]21CCCO1	1.1e-06 M	7.05	–	–	–	–
C[C@]12CC[C@H]3[C@@H](CCC4=CC(=O)CC[C@@]43C)[C@@H]1CC[C@@H]2C(=O)O	6.6e-07 M	5.05	–	–	–	–
COC(=O)[C@H]1CC[C@H]2[C@@H]3CCC4=CC(=O)CC[C@]4(C)[C@H]3CC[C@]12C	4.8e-07 M	6.85	–	–	–	–
CC(C)N(C(=O)[C@H]1CC[C@H]2[C@@H]3CCC4NC(=O)CC[C@]4(C)[C@H]3CC[C@]12C)C(C)C (stereo partly drawn)	–	< 4.00	11	–	13	–
CN1C(=O)CC[C@@]2(C)C1CC[C@H]1[C@@H]3CC[C@H](O)[C@@]3(C)CC[C@@H]12 (stereo partly drawn)	1.5e-07 M	7.72	–	–	–	–
CC(=O)[C@H]1CC[C@H]2[C@@H]3CCC4NC(=O)CC[C@]4(C)[C@H]3CC[C@]12C (stereo partly drawn)	5e-08 M	4.17	–	–	–	–
CC(C(=O)[O-])[C@H]1CC[C@H]2[C@@H]3CCC4N(C)C(=O)CC[C@]4(C)[C@H]3CC[C@]12C.[Na+] (stereo partly drawn)	–	4.34	1.7	–	1.7	–
CC(=O)[C@H]1CC[C@H]2[C@@H]3CCC4N(C)C(=O)CC[C@]4(C)[C@H]3CC[C@]12C (stereo partly drawn)	2.3e-08 M	6.68	–	–	–	–
CCN(CC)C(=O)[C@H]1CC[C@H]2[C@@H]3CC[C@H]4N(C)C(=O)CC[C@]4(C)[C@H]3CC[C@]12C	–	5.55	11	–	–	5
CC(O)[C@@]1(O)CC[C@H]2[C@@H]3CCC4N(C)C(=O)CC[C@]4(C)[C@H]3CC[C@@]21C (stereo partly drawn)	–	5.72	7.6	–	6	–
CCN(CC)C(=O)[C@H]1CC[C@H]2[C@@H]3CC[C@@H]4NC(=O)CC[C@]4(C)[C@H]3CC[C@]12C (stereo in doubt; 9x)	–	< 4.00	41	–	29	–
CC(O)[C@H]1CC[C@H]2[C@@H]3CCC4N(C)C(=O)CC[C@]4(C)[C@H]3CC[C@]12C (stereo partly drawn)	1.9e-08 M	7.13	–	–	–	–
C[C@]12CC[C@H]3[C@@H](CCC4NC(=O)CC[C@@]43C)[C@@H]1CC[C@@H]2O (stereo partly drawn)	2.5e-07 M	6.03	–	–	–	–
C[C@]12CCC(=O)C[C@@H]1CC[C@@H]1[C@@H]2CC[C@]2(C)[C@@H](O)CC[C@@H]12 [STANOLONE]	>> 1e-6 M	–	–	–	–	–
C[C@]12CC[C@H]3[C@@H](CCC4=CC(=O)CC[C@@H]43)[C@@H]1CC[C@@]21CCCO1	1.5e-06 M	7.52	–	–	–	–

SMILES	IC50 [1]	pIC50 (Androgen receptor)	IC50 [2] [nM]	Ki app [3] [nM]	Ki app [4] [nM]	Ki app [5] [nM]
CC(O)[C@H]1CC[C@H]2[C@@H]3CCC4NC(=O)CC[C@]4(C)[C@H]3CC[C@]12C (stereo partly drawn)	4.5e-08 M	5.03	–	–	–	–
C[C@]12CCC(=O)CC1CC[C@@H]1[C@@H]2CC[C@@]2(C)[C@H]1CC[C@@]21CCCO1 (stereo partly drawn)	> 1e-06 M	7.64	–	–	–	–
CCN(CC)C(=O)[C@H]1CC[C@H]2[C@@H]3CCC4=CC(=O)CC[C@]4(C)[C@H]3CC[C@]12C	7.6e-07 M	6.47	–	–	–	–
C=C1C[C@@H]2[C@H](CC[C@@]3(C)[C@H]2CC[C@]3(OC(C)=O)C(C)=O)[C@@]2(C)CCC(=O)C=C12	1.6e-07 M	–	–	–	–	–
CCCCCCCCCCCCCCCCCCNC(=O)[C@H]1CC[C@H]2[C@@H]3CCC4N(C)C(=O)CC[C@]4(C)[C@H]3CC[C@]12C (stereo partly drawn)	–	4.77	20	–	–	–
CCN(CC)C(=O)[C@H]1CC[C@H]2[C@@H]3CC[C@H]4N(C)C(=O)C[C@H](C#N)[C@]4(C)[C@H]3CC[C@]12C	–	< 5.00	> 1000	–	–	–
CC(C#N)[C@H]1CC[C@H]2[C@@H]3CCC4N(C)C(=O)CC[C@]4(C)[C@H]3CC[C@]12C (stereo partly drawn)	–	6.54	7.6	–	–	–
CN1C(=O)CC[C@@]2(C)C1CC[C@@H]1[C@@H]2CC[C@@]2(C)[C@H]1CC[C@@]21CCCO1 (stereo partly drawn)	–	6.85	37	–	24	–
CCN(CC)C(=O)[C@H]1CC[C@H]2[C@@H]3CC[C@H]4N(C)C(=O)[C@@H](C)C[C@]4(C)[C@H]3CC[C@]12C	–	5.21	20	–	–	–
CC(CO)[C@H]1CC[C@H]2[C@@H]3CCC4N(C)C(=O)CC[C@]4(C)[C@H]3CC[C@]12C (stereo partly drawn)	–	6.07	3.8	–	–	–
CC(C)N(C(=O)[C@H]1CC[C@H]2[C@@H]3CC[C@@H]4N(C)C(=O)CC[C@]4(C)[C@H]3CC[C@]12C)C(C)C	–	< 5.00	1000	–	–	–
CC(C)N(C(=O)[C@H]1CC[C@H]2[C@@H]3CC=C4NC(=O)CC[C@]4(C)[C@H]3CC[C@]12C)C(C)C	–	4.85	86	–	–	–
CCN(CC)C(=O)[C@H]1CC[C@H]2[C@@H]3CC[C@H]4N(C)C(=O)C=C[C@]4(C)[C@H]3CC[C@]12C	–	6.35	290	–	–	–
CN1C(=O)CC[C@@]2(C)C1CC[C@@H]1[C@@H]2CC[C@@]2(C)[C@H]1CC[C@@]21CCC(=O)O1 (stereo partly drawn)	–	7.05	40	–	–	–
CN1C(=O)CC[C@@]2(C)C1CC[C@H]1[C@@H]3CC[C@H](C(=O)N4CCOCC4)[C@@]3(C)CC[C@@H]12 (stereo partly drawn)	–	5.00	27	–	–	–
CC(O)[C@H]1[C@H](C)C[C@H]2[C@@H]3CCC4N(C)C(=O)CC[C@]4(C)[C@H]3CC[C@@]21C (stereo partly drawn)	–	6.77	2.8	–	–	–
CCN(CC)C(=O)CCC(C)[C@H]1CC[C@H]2[C@@H]3CCC4N(C)C(=O)CC[C@]4(C)[C@H]3CC[C@]12C (stereo partly drawn)	–	6.37	3.4	–	–	–
